Source: ChEMBL document CHEMBL3822442, “Synthesis and Pharmacological Characterization of Novel Glucagon-like Peptide-2 (GLP-2) Analogues with Low Systemic Clearance” (J Med Chem, 2016)
Calls of active or inactive are those of the source. The calls are words filed in the database; no cut-off is given here. Non-standard residues stand in square brackets, D forms with d. Residues, ends and D or L forms follow the SMILES beside them. Nle = CCCC[C@H](N)C(=O)O

Tests used:
Type in all cases: cell-based
[1] = molecular target: Glucagon receptor (Homo sapiens) (UniProt P47871); test: Agonist activity at human GCGR expressed in HEK293 cells after 5 hrs by luciferase reporter gene assay
[2] = system: HEK293; test: Selectivity ratio of EC50 for human GLP1R expressed in HEK293 cells to EC50 for human GLP2R expressed in HEK293
[3] = molecular target: T1, Glucagon-like peptide 2 receptor (Homo sapiens, UniProt O95838); test: Agonist activity at human GLP2R expressed in HEK293 cells after 5 hrs by luciferase reporter gene assay
T1 sequence (O95838 whole entry): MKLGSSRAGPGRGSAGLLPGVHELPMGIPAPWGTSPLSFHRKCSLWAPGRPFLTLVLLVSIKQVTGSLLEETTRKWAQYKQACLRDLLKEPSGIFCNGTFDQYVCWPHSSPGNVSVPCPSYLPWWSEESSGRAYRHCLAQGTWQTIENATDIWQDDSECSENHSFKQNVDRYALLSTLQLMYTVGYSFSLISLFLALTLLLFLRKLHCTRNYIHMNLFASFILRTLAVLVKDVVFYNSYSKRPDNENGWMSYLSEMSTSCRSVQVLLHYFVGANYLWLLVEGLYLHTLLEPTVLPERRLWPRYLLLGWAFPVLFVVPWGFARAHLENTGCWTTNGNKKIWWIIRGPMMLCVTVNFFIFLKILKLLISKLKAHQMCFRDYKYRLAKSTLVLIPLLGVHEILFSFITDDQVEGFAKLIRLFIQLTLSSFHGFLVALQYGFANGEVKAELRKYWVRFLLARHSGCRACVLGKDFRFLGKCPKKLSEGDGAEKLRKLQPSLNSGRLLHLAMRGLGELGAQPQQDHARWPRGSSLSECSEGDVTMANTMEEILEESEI

[4] = molecular target: T2, Glucagon-like peptide 2 receptor (Homo sapiens) (UniProt O95838); test: Potency index, ratio of compound EC50 to compound 2 EC50 for human GLP2R expressed in HEK293 cells
T2 sequence (whole entry): T1 sequence (O95838 whole entry)

[5] = molecular target: Glucagon-like peptide 1 receptor (Homo sapiens, UniProt P43220); test: Agonist activity at human GLP1R expressed in HEK293 cells after 5 hrs by luciferase reporter gene assay
Glucagon-like peptide 1 receptor, sequence (P43220 whole entry): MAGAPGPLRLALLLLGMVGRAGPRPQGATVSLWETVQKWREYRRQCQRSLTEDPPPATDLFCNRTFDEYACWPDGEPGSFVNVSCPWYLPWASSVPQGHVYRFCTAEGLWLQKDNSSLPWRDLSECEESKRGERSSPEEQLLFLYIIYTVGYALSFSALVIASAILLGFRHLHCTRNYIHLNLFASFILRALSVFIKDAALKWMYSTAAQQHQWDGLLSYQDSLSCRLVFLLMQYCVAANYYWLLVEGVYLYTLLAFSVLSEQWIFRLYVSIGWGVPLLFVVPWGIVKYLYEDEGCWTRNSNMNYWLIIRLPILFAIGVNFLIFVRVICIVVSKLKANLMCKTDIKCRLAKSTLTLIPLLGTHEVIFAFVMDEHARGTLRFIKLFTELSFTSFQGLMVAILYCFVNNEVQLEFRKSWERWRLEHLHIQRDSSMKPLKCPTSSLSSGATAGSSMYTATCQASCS

Glucagon receptor (Homo sapiens), sequence (P47871 whole entry): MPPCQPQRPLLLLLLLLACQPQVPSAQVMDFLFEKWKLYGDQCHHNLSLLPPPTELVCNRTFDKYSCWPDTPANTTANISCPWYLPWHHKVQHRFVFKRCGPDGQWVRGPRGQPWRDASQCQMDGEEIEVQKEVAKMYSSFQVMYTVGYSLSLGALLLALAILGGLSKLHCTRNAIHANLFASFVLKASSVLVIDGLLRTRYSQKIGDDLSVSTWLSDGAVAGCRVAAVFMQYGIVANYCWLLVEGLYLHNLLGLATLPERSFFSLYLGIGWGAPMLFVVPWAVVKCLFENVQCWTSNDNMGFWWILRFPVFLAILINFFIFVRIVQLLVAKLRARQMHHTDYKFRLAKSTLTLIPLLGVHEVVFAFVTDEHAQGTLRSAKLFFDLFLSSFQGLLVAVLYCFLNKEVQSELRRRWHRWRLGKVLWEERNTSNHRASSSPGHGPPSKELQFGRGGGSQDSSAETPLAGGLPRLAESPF

Activity [1] | EC50 [3] [nM] | Ratio EC50 [4] | EC50 [5] [nM] | SMILES | Ratio EC50 [2]
inactive | 0.2 | 0.91 | > 1000 | CCCC[C@H](NC(=O)[C@H](CCC(=O)O)NC(=O)[C@H](CC(=O)O)NC(=O)[C@H](CO)NC(=O)[C@H](Cc1ccccc1)NC(=O)[C@H](CO)NC(=O)[C@@H](C)NC(=O)[C@H](CC(=O)O)NC(=O)CNC(=O)[C@@H](N)Cc1cnc[nH]1)C(=O)N[C@@H](CC(N)=O)C(=O)N[C@H](C(=O)N[C@H](C(=O)N[C@@H](CC(C)C)C(=O)N[C@@H](CC(=O)O)C(=O)N[C@@H](CC(N)=O)C(=O)N[C@@H](CC(C)C)C(=O)N[C@@H](C)C(=O)N[C@@H](C)C(=O)N[C@@H](CCCNC(=N)N)C(=O)N[C@@H](CC(=O)O)C(=O)N[C@@H](Cc1ccccc1)C(=O)N[C@H](C(=O)N[C@@H](CC(N)=O)C(=O)N[C@@H](Cc1c[nH]c2ccccc12)C(=O)N[C@@H](CC(C)C)C(=O)N[C@H](C(=O)N[C@@H](CCC(N)=O)C(=O)N[C@H](C(=O)N[C@@H](CCCCN)C(N)=O)[C@@H](C)O)[C@@H](C)CC)[C@@H](C)CC)[C@@H](C)CC)[C@@H](C)O (H-HGD[dA]SFSDE[Nle]NTILDNLAARDFINWLIQTK-NH2) | > 5000
inactive | 16 | 73 | > 1000 | CCCCC(NC(=O)[C@H](CCC(=O)O)NC(=O)[C@@H](CC(=O)O)NC(=O)[C@H](CO)NC(=O)[C@H](Cc1ccccc1)NC(=O)[C@H](CO)NC(=O)CNC(=O)[C@H](CC(=O)O)NC(=O)CNC(=O)[C@@H](N)Cc1cnc[nH]1)C(=O)N[C@@H](CC(N)=O)C(=O)N[C@H](C(=O)N[C@H](C(=O)N[C@@H](CC(C)C)C(=O)N[C@@H](CC(=O)O)C(=O)N[C@@H](CC(N)=O)C(=O)N[C@@H](CC(C)C)C(=O)N[C@@H](C)C(=O)N[C@@H](C)C(=O)N[C@@H](CCCNC(=N)N)C(=O)N[C@@H](CC(=O)O)C(=O)N[C@@H](Cc1ccccc1)C(=O)N[C@H](C(=O)N[C@@H](CC(N)=O)C(=O)N[C@@H](Cc1c[nH]c2ccccc12)C(=O)N[C@@H](CC(C)C)C(=O)N[C@H](C(=O)N[C@@H](CCC(N)=O)C(=O)N[C@H](C(=O)N[C@@H](CCCCN)C(N)=O)[C@@H](C)O)[C@@H](C)CC)[C@@H](C)CC)[C@@H](C)CC)[C@@H](C)O (stereo not given in full) | > 62
inactive | 0.23 | 1 | > 1000 | CCCC[C@@H](NC(=O)[C@H](CCC(=O)O)NC(=O)[C@H](CC(=O)O)NC(=O)[C@H](CO)NC(=O)[C@H](Cc1ccccc1)NC(=O)[C@H](CO)NC(=O)CNC(=O)[C@H](CC(=O)O)NC(=O)CNC(=O)[C@@H](N)Cc1cnc[nH]1)C(=O)N[C@@H](CC(N)=O)C(=O)N[C@H](C(=O)N[C@H](C(=O)N[C@@H](CC(C)C)C(=O)N[C@@H](CC(=O)O)C(=O)N[C@@H](CC(N)=O)C(=O)N[C@@H](CC(C)C)C(=O)N[C@@H](C)C(=O)N[C@@H](C)C(=O)N[C@@H](CCCNC(=N)N)C(=O)N[C@@H](CC(=O)O)C(=O)N[C@@H](Cc1ccccc1)C(=O)N[C@H](C(=O)N[C@@H](CC(N)=O)C(=O)N[C@@H](Cc1c[nH]c2ccccc12)C(=O)N[C@@H](CC(C)C)C(=O)N[C@H](C(=O)N[C@@H](CCC(N)=O)C(=O)N[C@H](C(=O)N[C@@H](CCCCN)C(N)=O)[C@@H](C)O)[C@@H](C)CC)[C@@H](C)CC)[C@@H](C)CC)[C@@H](C)O | > 4300
